# Laboratory results reported in patent publication EP0377642B1, “HERBICIDES FOR WEED CONTROL IN RICE” (E.I. DU PONT DE NEMOURS AND COMPANY, priority 1987, dated 1989).
# Key:
# Type in all cases: in vivo
# Ludwigia linifolia = assay: Herbicidal efficacy with Bensulfuron methyl and 2,4-D in Thailand (Table 18); conditions: 13 days after treatment
# Outline: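 Field trials in rice, transplanted or direct-seeded, in Southeast Asia and the U.S. Compound 1 alone or in mixtures, including with 2,4-D, hand-sprayed; the Indonesia Echinochloa trial was applied 2 weeks after transplanting.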
# rice [1] = assay: Effects in combination with Thiobencarb and Bensulfuron Methyl on rice growth (Table 22); conditions: rate 8 g ai/ha; var. Koshihikari, applied 7 days after transplanting, rated 21 days after application
# From the text: (§1) Methyl 2-[[[[(4-methoxy-6-methyl-1,3,5-triazin-2-yl)amino]carbonyl]amino]sulfonyl]benzoate (Compound 1) and mixtures thereof with other compounds were applied as a spray (using a hand sprayer) to rice (either transplanted or direct seeded) in several rice growing areas in Southeast Asia and in the U.S. Tables 1-28 contain the results of these tests and clearly exemplify the utility of this invention. The details of each application are included in the appropriate table. [drawing 2]
# Monochoria vaginalis [2] = assay: Herbicidal efficacy alone and with 2,4-D in Malaysia, applied 30 days after seeding (Table 8); conditions: 22 days after treatment
# From the text: as §1
# FIMBRISTYLIS MILIACEA = assay: as above; conditions: 22 days after treatment
# From the text: as §1
# Cyperus difformis = assay: as above; conditions: 22 days after treatment
# From the text: as §1
# Sphenoclea zeylanica = assay: as above; conditions: 22 days after treatment
# From the text: as §1
# Marsilea crenata = assay: as above; conditions: 22 days after treatment
# From the text: as §1
# Scirpus grossus = assay: as above; conditions: 22 days after treatment
# From the text: as §1
# weeds = assay: Greenhouse test of Compound 1 and Compound 2, herbicidal efficacy (Table 26); conditions: rated 24 days after treatment; for % CONTROL OR INJURY AT: Alisma triviale; for % CONTROL OR INJURY AP: Alternanthera philoxeroides; for % CONTROL OR INJURY CD: Cyperus difformis; for % CONTROL OR INJURY SR: Sagittaria rigida
# From the text: as §1
# Monochoria vaginalis [3] = assay: Herbicidal efficacy in Indonesia, applied 2 weeks after transplanting (Table 6)
# From the text: as §1
# Echinochloa crus-galli = assay: as above
# From the text: as §1
# rice [4] = assay: as above; conditions: 2 weeks after application
# From the text: as §1
# Scirpus juncoides = assay: as above
# From the text: as §1
# Salvinia molesta = assay: as above
# From the text: as §1
# rice [5] = assay: Effects on rice growth in Thailand, phytotoxicity (Table 4); conditions: scale 0-10
# From the text: as §1
# rice [6] = assay: Herbicidal efficacy in United States (Table 16); conditions: 57 days after application
# From the text: as §1
# Eclipta alba = assay: Herbicidal efficacy in United States (Table 16); conditions: 57 days after application
# From the text: as §1
# Sesbania exaltata = assay: Herbicidal efficacy in United States (Table 16); conditions: 57 days after application
# From the text: as §1
# [7] = 3 GAI/HA, 2 weeks after application
# [8] = 3 GAI/HA, 5 weeks after application
# [9] = 3 GAI/HA, 7 weeks after application
# [10] = 4 GAI/HA, 2 weeks after application
# [11] = 4 GAI/HA, 5 weeks after application
# [12] = 4 GAI/HA, 7 weeks after application
# [13] = 6 GAI/HA, 2 weeks after application
# [14] = 6 GAI/HA, 5 weeks after application
# [15] = 6 GAI/HA, 7 weeks after application
# [16] = 8 GAI/HA, 2 weeks after application
# [17] = 8 GAI/HA, 5 weeks after application
# [18] = 8 GAI/HA, 7 weeks after application
structure (smiles),measurement,setting,value
"COC(=O)c1ccccc1CS(=O)(=O)NC(=O)Nc1nc(OC)cc(OC)n1 [Bensulfuron methyl, methyl 2-[[[[[(4,6-dimethoxy-2-pyrimidinyl)amino]carbonyl]amino]sulfonyl]methyl]benzoate]",% CONTROL OR INJURY LL,Ludwigia linifolia; 10 GAI/HA,100%
same,% CONTROL OR INJURY LL,Ludwigia linifolia; 15 GAI/HA,100%
same,% CONTROL OR INJURY LL,Ludwigia linifolia; 20 GAI/HA,100%
"COC(=O)c1ccccc1S(=O)(=O)NC(=O)Nc1nc(C)nc(OC)n1 [Compound 1, Methyl 2-[[[[(4-methoxy-6-methyl-1,3,5-triazin-2-yl)amino]carbonyl]amino]sulfonyl]benzoate]",CROP TOLERANCE DW (Dry weight relative to untreated check),rice [1],92%
same,CROP TOLERANCE PH (Plant height relative to untreated check),rice [1],99%
same,CROP TOLERANCE VA (Visual crop injury),rice [1],0.5%
same,% CONTROL MV,Monochoria vaginalis [2]; 1 GAI/HA,95%
same,% CONTROL MV,Monochoria vaginalis [2]; 2 GAI/HA,95%
same,% CONTROL MV,Monochoria vaginalis [2]; 3 GAI/HA,100%
same,% CONTROL MV,Monochoria vaginalis [2]; 4 GAI/HA,100%
same,% CONTROL MV,Monochoria vaginalis [2]; 5 GAI/HA,100%
same,% CONTROL FM,FIMBRISTYLIS MILIACEA; 1 GAI/HA,0%
same,% CONTROL FM,FIMBRISTYLIS MILIACEA; 2 GAI/HA,100%
same,% CONTROL FM,FIMBRISTYLIS MILIACEA; 3 GAI/HA,50%
same,% CONTROL FM,FIMBRISTYLIS MILIACEA; 4 GAI/HA,50%
same,% CONTROL FM,FIMBRISTYLIS MILIACEA; 5 GAI/HA,20%
same,% CONTROL CD,Cyperus difformis; 1 GAI/HA,0%
same,% CONTROL CD,Cyperus difformis; 2 GAI/HA,100%
same,% CONTROL CD,Cyperus difformis; 3 GAI/HA,95%
same,% CONTROL CD,Cyperus difformis; 4 GAI/HA,100%
same,% CONTROL CD,Cyperus difformis; 5 GAI/HA,100%
same,% CONTROL SZ,Sphenoclea zeylanica; 1 GAI/HA,0%
same,% CONTROL SZ,Sphenoclea zeylanica; 2 GAI/HA,100%
same,% CONTROL SZ,Sphenoclea zeylanica; 3 GAI/HA,100%
same,% CONTROL SZ,Sphenoclea zeylanica; 4 GAI/HA,100%
same,% CONTROL SZ,Sphenoclea zeylanica; 5 GAI/HA,100%
same,% CONTROL MC,Marsilea crenata; 1 GAI/HA,20%
same,% CONTROL MC,Marsilea crenata; 2 GAI/HA,95%
same,% CONTROL MC,Marsilea crenata; 3 GAI/HA,100%
same,% CONTROL MC,Marsilea crenata; 4 GAI/HA,95%
same,% CONTROL MC,Marsilea crenata; 5 GAI/HA,100%
same,% CONTROL SG,Scirpus grossus; 1 GAI/HA,80%
same,% CONTROL SG,Scirpus grossus; 2 GAI/HA,100%
same,% CONTROL SG,Scirpus grossus; 3 GAI/HA,95%
same,% CONTROL SG,Scirpus grossus; 4 GAI/HA,95%
same,% CONTROL SG,Scirpus grossus; 5 GAI/HA,100%
same,% CONTROL OR INJURY AT,weeds; rate 1 g ai/ha,80%
same,% CONTROL OR INJURY AT,weeds; rate 2 g ai/ha,95%
same,% CONTROL OR INJURY AT,weeds; rate 4 g ai/ha,95%
same,% CONTROL OR INJURY AT,weeds; rate 8 g ai/ha,95%
same,% CONTROL OR INJURY AP,weeds; rate 1 g ai/ha,0%
same,% CONTROL OR INJURY AP,weeds; rate 2 g ai/ha,0%
same,% CONTROL OR INJURY AP,weeds; rate 4 g ai/ha,60%
same,% CONTROL OR INJURY AP,weeds; rate 8 g ai/ha,70%
same,% CONTROL OR INJURY CD,weeds; rate 1 g ai/ha,60%
same,% CONTROL OR INJURY CD,weeds; rate 2 g ai/ha,60%
same,% CONTROL OR INJURY CD,weeds; rate 4 g ai/ha,80%
same,% CONTROL OR INJURY CD,weeds; rate 8 g ai/ha,100%
same,% CONTROL OR INJURY SR,weeds; rate 1 g ai/ha,90%
same,% CONTROL OR INJURY SR,weeds; rate 2 g ai/ha,95%
same,% CONTROL OR INJURY SR,weeds; rate 4 g ai/ha,95%
same,% CONTROL OR INJURY SR,weeds; rate 8 g ai/ha,95%
same,% CONTROL MV,Monochoria vaginalis [3]; [7],100%
same,% CONTROL MV,Monochoria vaginalis [3]; [8],100%
same,% CONTROL MV,Monochoria vaginalis [3]; [9],100%
same,% CONTROL MV,Monochoria vaginalis [3]; [10],90%
same,% CONTROL MV,Monochoria vaginalis [3]; [11],100%
same,% CONTROL MV,Monochoria vaginalis [3]; [12],100%
same,% CONTROL MV,Monochoria vaginalis [3]; [13],100%
same,% CONTROL MV,Monochoria vaginalis [3]; [14],100%
same,% CONTROL MV,Monochoria vaginalis [3]; [15],100%
same,% CONTROL MV,Monochoria vaginalis [3]; [16],100%
same,% CONTROL MV,Monochoria vaginalis [3]; [17],100%
same,% CONTROL MV,Monochoria vaginalis [3]; [18],100%
same,% CONTROL EC,Echinochloa crus-galli; [7],20%
same,% CONTROL EC,Echinochloa crus-galli; [8],30%
same,% CONTROL EC,Echinochloa crus-galli; [9],0%
same,% CONTROL EC,Echinochloa crus-galli; [10],20%
same,% CONTROL EC,Echinochloa crus-galli; [11],30%
same,% CONTROL EC,Echinochloa crus-galli; [12],0%
same,% CONTROL EC,Echinochloa crus-galli; [13],20%
same,% CONTROL EC,Echinochloa crus-galli; [14],30%
same,% CONTROL EC,Echinochloa crus-galli; [15],0%
same,% CONTROL EC,Echinochloa crus-galli; [16],20%
same,% CONTROL EC,Echinochloa crus-galli; [17],30%
same,% CONTROL EC,Echinochloa crus-galli; [18],0%
same,% CONTROL RICE,rice [4]; 3 GAI/HA,10%
same,% CONTROL RICE,rice [4]; 4 GAI/HA,10%
same,% CONTROL RICE,rice [4]; 6 GAI/HA,10%
same,% CONTROL RICE,rice [4]; 8 GAI/HA,10%
same,% CONTROL SJ,Scirpus juncoides; [7],60%
same,% CONTROL SJ,Scirpus juncoides; [8],90%
same,% CONTROL SJ,Scirpus juncoides; [9],70%
same,% CONTROL SJ,Scirpus juncoides; [10],60%
same,% CONTROL SJ,Scirpus juncoides; [11],100%
same,% CONTROL SJ,Scirpus juncoides; [12],70%
same,% CONTROL SJ,Scirpus juncoides; [13],90%
same,% CONTROL SJ,Scirpus juncoides; [14],100%
same,% CONTROL SJ,Scirpus juncoides; [15],80%
same,% CONTROL SJ,Scirpus juncoides; [16],80%
same,% CONTROL SJ,Scirpus juncoides; [17],100%
same,% CONTROL SJ,Scirpus juncoides; [18],80%
same,% CONTROL SM,Salvinia molesta; [7],30%
same,% CONTROL SM,Salvinia molesta; [8],70%
same,% CONTROL SM,Salvinia molesta; [9],80%
same,% CONTROL SM,Salvinia molesta; [10],40%
same,% CONTROL SM,Salvinia molesta; [11],70%
same,% CONTROL SM,Salvinia molesta; [12],80%
same,% CONTROL SM,Salvinia molesta; [13],30%
same,% CONTROL SM,Salvinia molesta; [14],90%
same,% CONTROL SM,Salvinia molesta; [15],90%
same,% CONTROL SM,Salvinia molesta; [16],40%
same,% CONTROL SM,Salvinia molesta; [17],80%
same,% CONTROL SM,Salvinia molesta; [18],90%
same,PHYTOTOXICITY,"rice [5]; applied 7 DAS, 3 GAI/HA",1.67
same,PHYTOTOXICITY,"rice [5]; applied 7 DAS, 6 GAI/HA",1.67
same,PHYTOTOXICITY,"rice [5]; applied 14 DAS, 3 GAI/HA",1.0
same,PHYTOTOXICITY,"rice [5]; applied 14 DAS, 6 GAI/HA",1.0
same,PHYTOTOXICITY,"rice [5]; applied 21 DAS, 3 GAI/HA",0.67
same,PHYTOTOXICITY,"rice [5]; applied 21 DAS, 6 GAI/HA",1.0
same,PHYTOTOXICITY,"rice [5]; applied 28 DAS, 3 GAI/HA",0
same,PHYTOTOXICITY,"rice [5]; applied 28 DAS, 6 GAI/HA",0
same,% CONTROL OR INJURY RICE,rice [6]; 7 GAI/HA,3%
same,% CONTROL OR INJURY RICE,rice [6]; 14 GAI/HA,10%
same,% CONTROL OR INJURY RICE,rice [6]; 21 GAI/HA,5%
same,% CONTROL OR INJURY EA,Eclipta alba; 7 GAI/HA,97%
same,% CONTROL OR INJURY EA,Eclipta alba; 14 GAI/HA,98%
same,% CONTROL OR INJURY EA,Eclipta alba; 21 GAI/HA,98%
same,% CONTROL OR INJURY SE,Sesbania exaltata; 7 GAI/HA,97%
same,% CONTROL OR INJURY SE,Sesbania exaltata; 14 GAI/HA,98%
same,% CONTROL OR INJURY SE,Sesbania exaltata; 21 GAI/HA,98%
